Here are results for 27 compounds from patent publication US20220315567A1 (priority 2016, published 2022).

Counter-ions that a name gives are not always drawn. Like-named read-outs stand apart in the source and are kept apart here.

In data set [1] the target is T1, human OPRM1 (μ, MOR) (Homo sapiens, UniProt P35372).
T1 construct: host or cells: CHO-K1
The data set can be described thus: cell-based. The note with it: for Emax: OPRM1, read-out: β-Arrestin Emax; for EC50: PathHunter human OPRM1 Arrestin CHO-K1 cell line, read-out: β-Arrestin EC50. In a few lines:
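β-Arrestin-2 recruitment was measured in PathHunter CHO-K1 cells expressing ED-tagged human OPRM1 and EA-fused arrestin. Agonist-driven recruitment restores β-galactosidase activity by enzyme fragment complementation, read by chemiluminescence.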

In data set [2] the target is T1, human OPRM1 (μ, MOR). Nature of the data set: cell-based. The note with it: for Emax: OPRM1, read-out: cAMP Emax; for EC50: PathHunter human OPRM1 Arrestin CHO-K1 cell line, read-out: cAMP EC50. As to the method:
G-protein signaling was measured via second messenger cAMP modulation. Detection of cAMP modulation was accomplished in the PathHunter human OPRM1 (μ, MOR) Arrestin CHO-K1 cell line using the Dynamic2 cAMP Kit from Cisbio.

Data set [3] has as its target T1, human OPRM1 (μ, MOR). Format: cell-based. The note with it: for ΔRA of compound: relative activity from EC50 and Emax of β-arrestin vs cAMP, lower RA = more G-protein biased. In short, it runs like this: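 Activity measured in cell assays for G-protein signaling and for β-arrestin recruitment. A relative activity (RA) value was derived by comparing the two readouts, taking both EC50 and Emax into account.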

T1 sequence (P35372 whole entry): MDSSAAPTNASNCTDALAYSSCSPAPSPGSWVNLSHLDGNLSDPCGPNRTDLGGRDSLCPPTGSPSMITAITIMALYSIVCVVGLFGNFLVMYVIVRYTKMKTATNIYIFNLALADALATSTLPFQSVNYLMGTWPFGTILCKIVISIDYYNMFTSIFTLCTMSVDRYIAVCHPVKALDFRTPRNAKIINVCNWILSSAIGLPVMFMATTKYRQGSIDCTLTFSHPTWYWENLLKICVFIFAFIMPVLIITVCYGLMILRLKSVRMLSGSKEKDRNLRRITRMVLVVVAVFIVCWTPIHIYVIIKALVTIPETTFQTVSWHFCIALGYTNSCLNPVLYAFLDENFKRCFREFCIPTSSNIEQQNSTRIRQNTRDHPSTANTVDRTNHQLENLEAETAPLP

Take `CN(C)C(CNC(=O)N1Cc2ccc(Cl)cc2C1)c1ccsc1` (stereo not drawn) (as salt: hydrochloride) [Compound 4a, 5-Chloro-N-(2-(dimethylamino)-2-(thiophen-3-yl)ethyl)isoindoline-2-carboxamide hydrochloride]: the melting point is 210 to 215 °C (dec.).
On to `COc1ccc2c(c1)CN(C(=O)NCC(c1ccsc1)N(C)C)C2` (stereo not drawn) (as salt: hydrochloride) [Compound 5a, N-(2-(Dimethylamino)-2-(thiophen-3-yl)ethyl)-5-methoxyisoindoline-2-carboxamide hydrochloride], for which the melting point is 210 to 215 °C (dec.).
In turn, `CN(C)C(CNC(=O)N1Cc2cc(F)c(F)cc2C1)c1ccsc1` (stereo not drawn) (as salt: hydrochloride) [Compound 6a, N-(2-(dimethylamino)-2-(thiophen-3-yl)ethyl)-5,6-difluoroisoindoline-2-carboxamide hydrochloride] displayed a melting point of 210 to 212 °C.
Regarding `CN(C)C(CNC(=O)NC1CCc2ccccc2C1)c1ccsc1` (stereo not drawn) (as salt: hydrochloride) [Compound 10a, 1-(2-(Dimethylamino)-2-(thiophen-3-yl)ethyl)-3-(1,2,3,4-tetrahydronaphthalen-2-yl)urea hydrochloride], the melting point was 151 to 153 °C.
Consider `CN(C)C(CNC(=O)NC1CCCc2ccccc21)c1ccsc1` (stereo not drawn) (as salt: hydrochloride) [Compound 11a, 1-(2-(Dimethylamino)-2-(thiophen-3-yl)ethyl)-3-(1,2,3,4-tetrahydronaphthalen-1-yl)urea hydrochloride], for which the melting point fell in the range of 179 to 181 °C.
Regarding `Cc1ccc2c(c1)CN(C(=O)NCC(c1ccsc1)N(C)C)C2` (stereo not drawn) (as salt: hydrochloride) [Compound 12a, N-(2-(Dimethylamino)-2-(thiophen-3-yl)ethyl)-5-methylisoindoline-2-carboxamide hydrochloride], the melting point was 200 to 202 °C (dec.).
`CN(C)C(CNC(=O)N(C)C1CCCc2ccccc21)c1ccsc1` (stereo not drawn) (as salt: hydrochloride) [Compound 13a, 3-(2-(Dimethylamino)-2-(thiophen-3-yl)ethyl)-1-methyl-1-(1,2,3,4-tetrahydronaphthalen-1-yl)urea hydrochloride] registered a melting point of 188 to 190 °C.
In turn, `CN(C)C(CNC(=O)N1Cc2ccccc2C1)c1ccc(F)cc1Cl` (stereo not drawn) (as salt: hydrochloride) [Compound 14a, N-(2-(2-Chloro-4-fluorophenyl)-2-(dimethylamino)ethyl)isoindoline-2-carboxamide hydrochloride] returned a melting point of 147 to 149 °C.
In the case of `COc1ccc(C(CNC(=O)N2Cc3ccccc3C2)N(C)C)cc1` (stereo not drawn) (as salt: hydrochloride) [Compound 15a, N-(2-(Dimethylamino)-2-(4-methoxyphenyl)ethyl)isoindoline-2-carboxamide hydrochloride], the melting point was 149 to 151 °C (dec.).
For the compound `COc1ccc(C(CNC(=O)N2Cc3ccc(F)cc3C2)N(C)C)cc1` (stereo not drawn) (as salt: hydrochloride) [Compound 16a, N-(2-(Dimethylamino)-2-(4-methoxyphenyl)ethyl)-5-fluoroisoindoline-2-carboxamide hydrochloride], the melting point is 145 to 149 °C (dec.).
On the same count and under the same terms, the result for `CN(C)C(CNC(=O)N1Cc2ccc(F)cc2C1)c1ccc(F)cc1Cl` (stereo not drawn) (as salt: hydrochloride) [Compound 17a, N-(2-(2-Chloro-4-fluorophenyl)-2-(dimethylamino)ethyl)-5-fluoroisoindoline-2-carboxamide hydrochloride] reads 173 to 174 °C (dec.); that for `CN(C)C(CNC(=O)N1Cc2ccccc2C1)c1ccccc1` (stereo not drawn) (as salt: hydrochloride) [Compound 18a, N-(2-(Dimethylamino)-2-phenylethyl)isoindoline-2-carboxamide hydrochloride], 107 to 108 °C; that for `CN(C)C(CNC(=O)NC1CCc2ccccc2C1)c1ccccc1` (stereo not drawn) (as salt: hydrochloride) [Compound 19a, 1-(2-(Dimethylamino)-2-phenylethyl)-3-(1,2,3,4-tetrahydronaphthalen-2-yl)urea hydrochloride], 160 to 161 °C.
Take `CN(C)C(CNC(=O)N1Cc2ccc(F)cc2C1)c1ccccc1` (stereo not drawn) (as salt: hydrochloride) [Compound 20a, N-(2-(Dimethylamino)-2-phenylethyl)-5-fluoroisoindoline-2-carboxamide hydrochloride]: the melting point lay in the range of 148 to 150 °C.
As to `CN(C)C(CNC(=O)N1Cc2ccc(F)cc2C1)c1ccsc1` (single isomer, unassigned) (as salt: hydrochloride) [2a-ent-(+), (+)—N-(2-(Dimethylamino)-2-(thiophen-3-yl)ethyl)-5-fluoroisoindoline-2-carboxamide hydrochloride], the melting point was 150 to 155 °C (dec.).
With `CN(C)C(CNC(=O)N1Cc2ccc(F)cc2C1)c1ccc(O)cc1` (stereo not drawn) [Compound 21, N-(2-(Dimethylamino)-2-(4-hydroxyphenyl)ethyl)-5-fluoroisoindoline-2-carboxamide], the melting point was 180 to 185 °C (dec.). Moreover, on human OPRM1 (μ, MOR) [1], the Emax was less than 1% and the EC50 is more than 100 µM. Besides, at human OPRM1 (μ, MOR) [2], the Emax came to 4.5% and the EC50 was more than 100 µM.
Compound `CN(C(=O)OC(C)(C)C)C(CNC(=O)N1Cc2ccc(F)cc2C1)c1ccsc1` (stereo not drawn) [Compound 34, tert-Butyl (2-(5-fluoroisoindoline-2-carboxamido)-1-(thiophen-3-yl)ethyl)(methyl)carbamate] showed a melting point of 182 to 184 °C. Besides, on human OPRM1 (μ, MOR) [1], the Emax is less than 1% and the EC50 was more than 100 µM. Further, on human OPRM1 (μ, MOR) [2], the Emax turned out to be 2.6% and the EC50 was more than 100 µM.
`CN(C)C(CNC(=O)N1Cc2cccc(C#N)c2C1)c1ccsc1` (stereo not drawn) [Compound 44] showed a melting point of 159 to 161 °C. Also, on human OPRM1 (μ, MOR) [3], the “Bias Factor (ΔRA of compound relative to ΔRA of DAMGO) × 10” value is recorded as less than −14.83 and the ΔRA of compound was less than −2.96. Moreover, on human OPRM1 (μ, MOR) [1], the Emax was determined as 5.3% and the EC50 is more than 100 µM. Besides, on human OPRM1 (μ, MOR) [2], the Emax amounted to 51.4% and the EC50 was 0.162 µM.
Consider `CN(C)C(CNC(=O)N1CCCc2cc(O)ccc21)c1ccsc1` (stereo not drawn) [Compound 53], for which the melting point was 163 °C (dec.). Further, on human OPRM1 (μ, MOR) [3], the “Bias Factor (ΔRA of compound relative to ΔRA of DAMGO) × 10” value is −4.47 and the ΔRA of compound is given as −1.93. Further, on human OPRM1 (μ, MOR) [1], the Emax is 20.1% and the EC50 was 3.79 µM. On human OPRM1 (μ, MOR) [2], the Emax worked out at 120% and the EC50 came out at 0.267 µM.
The compound `CN(C)C1(CNC(=O)N2Cc3ccccc3C2)CCCCC1` [Compound 54] yielded a melting point of 225 to 227 °C. Besides, on human OPRM1 (μ, MOR) [3], the “Bias Factor (ΔRA of compound relative to ΔRA of DAMGO) × 10” value was −3.04 and the ΔRA of compound was −1.78. Further, at human OPRM1 (μ, MOR) [1], the Emax is 20.8% and the EC50 was found to be 4.42 µM. Besides, on human OPRM1 (μ, MOR) [2], the Emax was found to be 113% and the EC50 amounted to 0.396 µM.
Regarding `CN(C)C1(CNC(=O)N[C@@H]2CCc3ccccc3C2)CCCCC1` [Compound 55], the melting point fell in the range of 192 to 194 °C. Further, at human OPRM1 (μ, MOR) [3], the “Bias Factor (ΔRA of compound relative to ΔRA of DAMGO) × 10” value is given as less than −14.83 and the ΔRA of compound was less than −2.96. Besides, on human OPRM1 (μ, MOR) [1], the maximal response (Emax) is less than 1% and the EC50 is more than 100 µM. Moreover, on human OPRM1 (μ, MOR) [2], the Emax was 36.6% and the EC50 stood at 2.85 µM.
`CN(C)C1(CNC(=O)N[C@H]2CCc3ccccc3C2)CCCCC1` [Compound 56] had a melting point of 191 to 193 °C. In addition, on human OPRM1 (μ, MOR) [3], the “Bias Factor (ΔRA of compound relative to ΔRA of DAMGO) × 10” value is reported as less than −14.83 and the ΔRA of compound was less than −2.96. Also, on human OPRM1 (μ, MOR) [1], the Emax was less than 1% and the EC50 was more than 100 µM. Besides, at human OPRM1 (μ, MOR) [2], the Emax stood at 43.3% and the EC50 is 7.74 µM.
Compound `CN(C)C1(CNC(=O)N2Cc3ccc(F)cc3C2)CCOCC1` [Compound 61] had a melting point of 241 to 243 °C. Also, at human OPRM1 (μ, MOR) [3], the “Bias Factor (ΔRA of compound relative to ΔRA of DAMGO) × 10” value was less than −14.83 and the ΔRA of compound is listed as less than −2.96. Moreover, at human OPRM1 (μ, MOR) [1], the Emax is 14.5% and the EC50 is more than 100 µM. For the same compound, on human OPRM1 (μ, MOR) [2], the Emax stood at 104% and the EC50 came out at 1.17 µM.
The compound `CN(C)C(C)(C)CNC(=O)N1Cc2ccc(F)cc2C1` [Compound 62] displayed a melting point of 200 to 202 °C. Besides, on human OPRM1 (μ, MOR) [3], the “Bias Factor (ΔRA of compound relative to ΔRA of DAMGO) × 10” value was less than −14.83 and the ΔRA of compound is less than −2.96. Also, at human OPRM1 (μ, MOR) [1], the Emax is less than 1% and the EC50 was more than 100 µM. At human OPRM1 (μ, MOR) [2], the Emax was 81.8% and the EC50 was determined as 21 µM.
Compound `CN(C)C1(CNC(=O)N[C@H]2CCc3ccccc3C2)CCCC1` [Compound 65] had a melting point of 204 to 206 °C. In addition, on human OPRM1 (μ, MOR) [1], the Emax was less than 1% and the EC50 was more than 100 µM. Moreover, on human OPRM1 (μ, MOR) [2], the Emax is less than 10% and the EC50 was more than 100 µM.
`CN(C)C(CNC(=O)N[C@@H]1CCc2ccccc2C1)c1ccsc1` (stereo partly drawn) [Compound 66] yielded a melting point of 164 to 166 °C. Besides, at human OPRM1 (μ, MOR) [3], the “Bias Factor (ΔRA of compound relative to ΔRA of DAMGO) × 10” value is listed as less than −14.83 and the ΔRA of compound was less than −2.96.
In the case of `CN(C)[C@@H](CCNC(=O)N[C@H]1CCc2ccccc2C1)c1ccsc1` [Compound 74], the melting point was in the range of 144 to 146 °C. For the same compound, at human OPRM1 (μ, MOR) [1], the Emax was less than 1% and the EC50 is more than 100 µM. Further, at human OPRM1 (μ, MOR) [2], the Emax worked out at 11.2% and the EC50 is more than 100 µM.

As a reminder, the melting point is the temperature, or range, at which the solid turns liquid. Usually Emax stands for the greatest response seen or fitted, relative to the assay's reference. A word on the EC50: it is the concentration needed to bring the measured effect to its halfway point.
